The values below come from ChEMBL document CHEMBL4665715, “Thienochromene derivatives inhibit pSTAT1 and pSTAT5 signaling induced by cytokines” (Bioorg Med Chem Lett, 2020).

Usually IC50 stands for the concentration that gives 50% inhibition.

Holding throughout (format): tissue-based
In test [1] the target is T1, Janus Kinase (JAK) (Homo sapiens, UniProt P52333+P23458+O60674+P29597). Description: Inhibition of JAK in human PBMC assessed as inhibition of IL2-induced STAT5 phosphorylation at 150 uM preincubated for 30 mins followed by addition IL2 stimulation and measured after 30 mins by ELISA. (ELISA stands for enzyme-linked immunosorbent assay.)
Test [2] concerns the target T1, Janus Kinase (JAK). Description: Inhibition of JAK in human PBMC assessed as inhibition of GM-CSF-induced STAT5 phosphorylation at 150 uM preincubated for 30 mins followed by addition […] stimulation and measured after 30 mins by ELISA.
Test [3] addresses T1, Janus Kinase (JAK). Description: Inhibition of JAK in human PBMC assessed as inhibition of IFNalpha-induced STAT1 phosphorylation at 150 uM preincubated for 30 mins followed by addition […] stimulation and measured after 30 mins by ELISA.
In test [4] the target is T1, Janus Kinase (JAK). Kind of test: Inhibition of JAK in human PBMC assessed as inhibition of IL2-induced STAT5 phosphorylation preincubated for 30 mins followed by addition IL2 stimulation and measured after 30 mins by ELISA.
Test [5] concerns the target T1, Janus Kinase (JAK). Kind of test: Inhibition of JAK in human PBMC assessed as inhibition of GM-CSF-induced STAT5 phosphorylation preincubated for 30 mins followed by addition […] stimulation and measured after 30 mins by ELISA.
Test [6] deals with T1, Janus Kinase (JAK). Kind of test: Inhibition of JAK in human PBMC assessed as inhibition of IFNalpha-induced STAT1 phosphorylation preincubated for 30 mins followed by addition […] stimulation and measured after 30 mins by ELISA.

Activity calls are given as the source filed them. The rule behind the calls is not given here.

For the compound `CCOC(=O)c1cc2c(=O)oc3cc(O)ccc3c2s1`, the inhibition entry on Janus Kinase (JAK) [1], at Janus Kinase (JAK) [2] and at Janus Kinase (JAK) [3] was “Active” each time. For the same compound, the figures for the IC50 on Janus Kinase (JAK) [4], at Janus Kinase (JAK) [5] and at Janus Kinase (JAK) [6] were 12.1 µM, 5 µM and 11.9 µM, respectively.
